Measured values from ChEMBL document CHEMBL1158047, “Lanostane triterpenoids from the Sri Lankan basidiomycete Ganoderma applanatum” (2006).

Test system: P388
Test: Cytotoxicity against mouse P388 cells
Type: functional

Row | Structure (SMILES) | Activity
1 | C=C(C(=O)C[C@@H](C)[C@H]1CC[C@@]2(C)C3=C(CC[C@]12C)[C@@]1(C)CC[C@@H](OC(=O)CC(=O)O)C(C)(C)[C@@H]1CC3)C(C)C(=O)O (stereo not given in full) | >125 µg/mL
2 | CC(C)=CCC[C@@H](C(=O)O)[C@H]1[C@H](O)C[C@@]2(C)C3=CC[C@H]4C(C)(C)[C@H](O)CC[C@]4(C)C3=CC[C@]12C | >125 µg/mL
3 | C/C(=C\CC[C@@H](C(=O)O)[C@H]1[C@H](O)C[C@@]2(C)C3=CC[C@H]4C(C)(C)[C@H](O)CC[C@]4(C)C3=CC[C@]12C)CO | >125 µg/mL
4 | CC(C)=CCC[C@@H](C(=O)O)[C@H]1[C@H](O)C[C@@]2(C)C3=CC[C@H]4C(C)(C)C(=O)CC[C@]4(C)C3=CC[C@]12C | 237 µM
5 | CC(C(=O)O)[C@@H](C)C(=O)C[C@@H](C)[C@H]1CC[C@@]2(C)C3=C(CC[C@]12C)[C@@]1(C)CC[C@@H](OC(=O)CC(=O)O)C(C)(C)[C@@H]1CC3 (stereo not given in full) [CARBOXYACETYLQUERCINIC ACID] | >125 µg/mL
